Data from patent US9546179B2, “Heterocycle amido alkyloxy substituted quinazoline derivative and use thereof” (priority 2011, dated 2017).
Marks after values point to notes of the source that are not given here.

Key:
[1] = test system: Human lung cancer cells (A549); test: Anticancer effect in vitro on A549 cells (MTT, GI50); format: cell-based; conditions: A549, 72 hours
Method: The inhibitory effect on the cancer cells of the compounds prepared in Example 1-Example 13, Example 20, Example 48, Example 49 and Example 57 was determined in vitro using cancer cells. The results are shown in table 2, and the specific detection methods are as follows:
Human lung cancer cells were (A549, purchased from Shanghai FuMeng Gene Bio-technology Co., Ltd.) cultured in DMEM containing 2 m M/L-glutamine and 10% FBS, and inoculated in 96-well plate, 200 μL/well and 2000 cells per well; the plate was preincubated for 24 hours under the condition of 5% CO2 and 100% relative humidity at 37° C., allowing for cell adherence.
When the cells adhered, the supernatant was removed, and 200 μL drug-containing culture medium was added with different concentration of compounds into each well (in concentration of 20 μg/ml, 12.5 µg/ml, 6.25 μg/ml, […], 1.5625 μg/ml and 0.78125 μg/ml), 3 multiple wells were set up for each drug concentration as well as blank control (cell culture medium without cells), and drug-free control (with no drugs, filled with complete medium in equal amount only), cultured for 72 hours under the condition of 5% CO2 incubator at 37° C. (100% relative humidity).
After the culture ended, the supernatant was carefully removed, and adding 200 μl DMEM culture medium containing 3% FBS with 500 μg/ml MTT into each well, and culturing for 4 hours under the condition of 5% CO2 incubator at 37° C. (100% relative humidity). After the supernatant was discarded, 150 μL DMSO was added in each well for solving. the GI50 value was measured by detecting the absorbance in the 570 nm wavelength.

[2] = test system: human lungs cancer cell strain A549; test: Tumor inhibitory effect on nude mice bearing A549 tumors; format: in vivo
Method: After digesting and detaching the monolayer-cultured human lungs cancer cell strain A549 (purchased from Shanghai FuMeng Gene Bio-technology Co., Ltd.), cells were collected and resuspended in the serum-free culture medium, and the concentration was adjusted to be 2×10^6/0.2 mL. 0.2 mL cell suspension was taken by injector and transplanted under the skin of square scapula behind left armpit of nude mice, 0.2 mL for each mouse. The tumor volume was measured every 2 or 3 days. The nude mice bearing tumors which rapidly grew without any diabrosis were selected after two weeks. Under the condition of asepsis, the tumors were removed, and cut into tumor tissue with the diameter of approximately 2-3 mm, and then inoculate the tissue under the skin of square scapula behind left armpit of nude mice by trocar. After repetition in three generations, the nude mice received administration randomly in groups excluding the ones bearing too large or too small tumors, when the tumor grew to be about 100 mm^3 in volume.
The selected animals were 6-week old BALB/C nude mice. The male mice were 20-22 g in weight and provided by Shanghai Laboratory Animal Center (SIPPR BK) (production permit No. SCXK (Hu) 2008-0016). The experimental period was totally 111 days.
The experiment was randomly divided into 2 groups, the negative control group consisting of 12 mice (solvent administration only) and treatment group consisting of 12 mice (compound C, 100 mg/kg).
Ethanol was used as cosolvent to promote dissolution of compound C, adding 0.5 w/v % carboxymethyl cellulose to form suspension with a 0.5% final concentration of carboxymethyl cellulose and a 10 w/v % final concentration of ethanol, and then, using ultrasound to form uniform suspension. The dosage for intragastric administration was 0.1 ml/10 g, and the negative control group was only subjected to the same solvent. On the first day of experiment, compound C was given 100 mg/kg in the morning and in the evening respectively, and afterwards, 100 mg/kg was given in every morning only. The negative control group was only given 0.1 ml/10 g of 10 v/v % ethanol 0.5 w/v % carboxymethyl cellulose in every morning.
Index: observing state of animals and measuring body weight daily; measuring tumors by calipers every two days. Sacrifice the animal in 24 hours after the last administration and measure the volume and size of tumor. Dissecting the animal and removing the tumor; weighing the tumor and nude mice; and then, drawing the curves of tumor volume and growth, nude mouse weight, tumor inhibition rate and animal death rate.
Tumor diameter measurement is used to observe the antitumor effect of the test substances dynamically. The formula for tumor volume (TV) calculation is: v=0.5×a×b^2(mm^3); wherein, a and b stand for length and width respectively.
The relative tumor volume (RTV) is calculated according to the measurement result; RTV=Vt/V0, wherein V0 is the tumor volume measured at the beginning of administration (i.e. d0) and Vt is the tumor volume at each measurement.
The index to evaluate antitumor activity is relative tumor proliferation rate T/C (%)
In the above formula, TRTV: RTV of treatment group, CRTV: RTV of negative control group.

[3] = biological target: T1, receptor tyrosine kinase EGFR (Homo sapiens, UniProt P00533); test: Inhibitory effect on receptor tyrosine kinase EGFR (ELISA, Poly(Glu, Tyr)4:1, PY99 antibody); format: biochemical; conditions: ATP 4 μM, 1 hour at 37° C.
T1 construct: purchased Shanghai 3bio Technology Co., Ltd. Lot No. 4018780925
T1 sequence (P00533 25-1210): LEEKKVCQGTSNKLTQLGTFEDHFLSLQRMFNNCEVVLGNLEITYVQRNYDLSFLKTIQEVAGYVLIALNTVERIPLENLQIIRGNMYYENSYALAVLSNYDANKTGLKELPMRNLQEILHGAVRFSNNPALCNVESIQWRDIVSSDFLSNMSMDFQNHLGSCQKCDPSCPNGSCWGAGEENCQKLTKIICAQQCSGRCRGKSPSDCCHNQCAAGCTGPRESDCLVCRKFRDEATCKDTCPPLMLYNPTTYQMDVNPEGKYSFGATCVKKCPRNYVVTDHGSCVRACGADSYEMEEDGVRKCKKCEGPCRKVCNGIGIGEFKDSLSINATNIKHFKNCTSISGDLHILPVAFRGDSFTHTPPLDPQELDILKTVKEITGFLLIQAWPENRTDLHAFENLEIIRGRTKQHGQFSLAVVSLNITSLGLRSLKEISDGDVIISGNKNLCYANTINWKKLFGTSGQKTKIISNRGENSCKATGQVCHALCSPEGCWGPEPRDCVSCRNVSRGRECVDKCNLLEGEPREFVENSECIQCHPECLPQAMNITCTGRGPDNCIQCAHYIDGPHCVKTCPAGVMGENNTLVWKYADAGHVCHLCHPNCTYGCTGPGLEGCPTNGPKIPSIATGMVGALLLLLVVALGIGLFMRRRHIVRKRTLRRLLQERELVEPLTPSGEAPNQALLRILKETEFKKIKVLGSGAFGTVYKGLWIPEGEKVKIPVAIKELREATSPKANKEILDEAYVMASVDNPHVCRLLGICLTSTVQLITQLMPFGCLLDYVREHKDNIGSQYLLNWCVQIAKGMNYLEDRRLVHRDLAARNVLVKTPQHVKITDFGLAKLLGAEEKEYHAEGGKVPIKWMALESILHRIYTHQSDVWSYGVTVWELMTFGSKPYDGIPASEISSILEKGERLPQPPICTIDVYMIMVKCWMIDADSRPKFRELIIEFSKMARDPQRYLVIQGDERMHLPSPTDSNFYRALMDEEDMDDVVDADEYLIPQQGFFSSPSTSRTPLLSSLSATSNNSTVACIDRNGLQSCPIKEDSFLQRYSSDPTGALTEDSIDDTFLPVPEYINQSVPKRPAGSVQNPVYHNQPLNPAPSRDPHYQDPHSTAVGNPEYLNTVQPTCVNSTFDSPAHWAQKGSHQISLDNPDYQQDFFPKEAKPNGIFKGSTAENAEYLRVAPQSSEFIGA
Summary of the method: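 Poly(Glu,Tyr)4:1-coated plates; kinase reaction with 4 μM ATP and compound at 1.0000–0.00024 μg/ml, run 1 h at 37 °C. Phosphotyrosine detected with PY99 and HRP anti-mouse IgG, OPD colour read at A492, and inhibition rate calculated.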

[4] = A549 in nude mice, 100 mg/kg intragastric, 21st day after administration

GI50 [1] | IC50 [3] | Compound | other results
26.6 µM | 0.1 to 1 µM | COc1cc2ncnc(Nc3ccc(F)c(Cl)c3)c2cc1OCCN1CC2CCC(C1)O2 [Example 11, 4-(3′-chloro-4′-fluorophenylamino)-6-[2-(8-oxa-3-azabicyclo[3.2.1]octane-3-yl)-oxethyl]-7-methoxyquinazoline] | –
10.2 µM | 0.1 to 1 µM | COc1cc2ncnc(Nc3ccc(F)c(Cl)c3)c2cc1OCCN1CCC2(COC2)C1 [Example 3, 4-(3′-chloro-4′-fluorophenylamino)-6-[2-(2-oxa-6-azaspiro[3.4]octane-6-yl)-oxethyl]-7-methoxyquinazoline] | –
39.7 µM | 0.01 to 0.1 µM | COc1cc2ncnc(Nc3ccc(F)c(Cl)c3)c2cc1OCCCN1CC2(COC2)C1 [Example 1, 4-(3′-chloro-4′-fluorophenylamino)-6-[3-(2-oxa-6-azaspiro[3.3]heptane-6-yl)-propoxy]-7-methoxyquinazoline] | –

Compound | GI50 [1] | IC50 [3] | other results
COc1cc2ncnc(Nc3ccc(F)c(Cl)c3)c2cc1OCCCN1CCC2(COC2)C1 [Example 2, 4-(3′-chloro-4′-fluorophenylamino)-6-[3-(2-oxa-6-azaspiro[3.4]octane-6-yl)-propoxy]-7-methoxyquinazoline] | 20.4 µM | – | body weight of the nude mice compared with the control group ([2]; 100 mg/kg intragastric, FIG. 1): consistent fluctuation; average tumor weight compared with the negative group ([2]; 21st day after administration, 100 mg/kg, P<0.05): less than the negative group; Tumor mass [2, 4]: 0.55 ± 0.43 g; Tumor volume [2, 4]: 515.4 ± 388.0** mm^3; Tumor inhibition rate ([2]; A549 in nude mice, 100 mg/kg intragastric, from tumor weight): 47.62%; T/C % ([2]; A549 in nude mice, 100 mg/kg intragastric, relative tumor proliferation rate): 43.44%; RTV ([2]; A549 in nude mice, 100 mg/kg intragastric, relative tumor volume Vt/V0): 4.57 ± 2.11; tumor volume and size compared with the control group ([2]; two weeks after administration, 100 mg/kg, p<0.05, FIG. 2): significantly less than the control group
COc1cc2ncnc(Nc3ccc(F)c(Cl)c3)c2cc1OCCN1C2CCC1COC2 [Example 13, 4-(3′-chloro-4′-fluorophenylamino)-6-[2-(3-oxa-8-azabicyclo[3.2.1]octane-8-yl)-oxethyl]-7-methoxyquinazoline] | 28.8 µM | 0.01 to 0.1 µM | –
